This note sets out measurements from PMC7595621, “Quorum sensing N-Acyl homoserine lactones are a new class of anti-schistosomal” (PLoS Neglected Tropical Diseases, 2020).

The test system of one series is S. aureus ATCC 29213. The experiment in a line: Broth microdilution MIC and IC50 determination, S. aureus. In kind it is cell-based, Staphylococcus aureus. The following applies: for MIC: ATCC29213, 24 h. The method, then:
(§1) S. aureus ATCC 29213 and E. coli ATCC 25922 were cultured in Luria-Bertani (LB) medium at 37°C with aeration at 200 rpm for 24 hr, with all procedures performed in a biosafety level 2 (BSL2) cabinet. Stationary phase cultures were then used for minimum inhibitory concentration (MIC) determination using the broth microdilution method, in fresh LB medium, in a 96-well plate. All compounds were tested in triplicate using an initial bacterial concentration of 5.0 × 10^5 colony forming units (CFU)/mL at a final concentration of 125 mg/L (5% and 2.5% v/v methanol). Compounds with no visible growth at 125 mg/L were further evaluated with progressing dilutions. […] Dilutions were repeated in three independent experiments where the optical density (OD600) was measured in a Hidex plate spectrophotometer and absorbance data used for the calculation of an IC50 value. The IC50 value was obtained from a dose response titration (125–0.09 mg/L). Dose response curves were obtained by non-linear regression, after log transformation of concentrations and data normalization using GraphPad Prism 7.02.
(§2) As Compound 1 was structurally similar to N-acyl homoserine lactones, a compound class involved in bacterial quorum sensing, we decided to assess its antimicrobial activity and determine if enantiomer separation or lactone ring substitution would change this activity.

Series [1] is described as follows: Cell cytotoxicity assay (MTT). In kind it is cell-based, human. To be noted: human, HepG2 cells, MTT, 95% confidence interval, called EC50.
Description: (§3) The cytotoxicity of each compound was assessed on human HepG2 cells as described previously [17]. Briefly, 2 x 10^4 cells/well were seeded in black walled 96-well microtiter plates (Fisher Scientific, Loughborough, UK) and incubated for 24 hr at 37°C in a humidified atmosphere containing 5% CO2. […] Following a further incubation for 24 hr, the MTT assay was performed as previously described [17, 27]. Dose response curves were obtained by non-linear regression, after log transformation of concentrations and data normalization using GraphPad Prism 7.02.
The test system of a further series is E. coli ATCC 25922. The experiment in a line: Broth microdilution MIC and IC50 determination, E. coli. To be noted: Escherichia coli; for MIC: ATCC25922, 24 h, 24 hr. It counts as cell-based. On the procedure:
as §1, §2

Series [2] has as its system juvenile S. mansoni worms. Briefly: Screening of juvenile S. mansoni blood flukes (3-week worms), motility scoring. In kind it is cell-based, Schistosoma mansoni. To be noted: for Selectivity index, juvenile worm: HepG2 CC50 / juvenile worm EC50; for EC50: Schistosoma mansoni, 3-week worms, motility scores, read-out: JUVENILE WORM EC50. On the procedure: Juvenile S. mansoni parasites were recovered via hepatic portal vein perfusion from TO outbred mice (HsdOla:TO, Tuck-Ordinary, Envigo, UK) that were infected percutaneously three weeks earlier with 4000 cercariae. Preparation and centrifugation of juvenile worms have been described previously. […] After motility quantification, 2 μg/mL of PI was added to each well and the plate returned to 37°C, 5% CO2 for 15 minutes. Each well was subsequently imaged on the Roboworm platform using brightfield and fluorescent microscopy (excitation wavelength = 580 nm; emission wavelength = 604 nm). The number of PI positive vs PI negative juvenile worms were cross-checked with the motility scores obtained by our scoring matrix, and the data reported as percentage of PI positive across all parasites within the well. EC50 values were calculated from the motility scores obtained from the dose response titration (as detailed above) and dose response curves were obtained by non-linear regression, after log transformation of concentrations and data normalization using GraphPad Prism 7.02.
Fig 4 Three week juvenile worms are immobilised by N-Acyl homoserine lactones. Three-week old juvenile S. mansoni worms (n = 13–33 per well) were co-cultured with compounds (1) and (3) at concentrations spanning 15 μM—0.23 μM for 72 hrs at 37°C in a humidified atmosphere containing 5% CO2. Parasite motility was scored between 0–4 (0 = no movement/dead, 4 = full movement/healthy). […] A) Effect of compound (1) on juvenile worm motility. (B) Effect of compound (3) on juvenile worm motility. p values are indicated as follows: * <0.05, ** <0.01, *** <0.001.

Series [3] concerns adult S. mansoni worm pairs (egg production). Briefly: In vitro egg production of adult S. mansoni worm pairs. In kind it is cell-based, Schistosoma mansoni. To be noted: 72 hr, compared to DMSO. On the procedure:
Adult S. mansoni parasites were recovered by hepatic portal vein perfusion from TO outbred mice (HsdOla:TO, Tuck-Ordinary, Envigo, UK) that were percutaneously infected seven weeks earlier with 180 cercariae. Three adult worm pairs per well, in duplicate, were transferred into 48 well plates (Fisher Scientific, Loughborough, UK) and cultured at 37 °C in an atmosphere containing 5% CO2 in DMEM (Gibco, Paisley, UK) containing 10% v/v HEPES, 10% v/v Foetal Bovine Serum (FBS), 0.7% v/v 200 mM L-Glutamine and 1X v/v penicillin-streptomycin. Worms were dosed with test compounds at 20 μM, 10 μM, 5 μM, 2.5 μM, 1.25 μM and 0.625 μM (in 0.2% DMSO) for 72 hr. Adult worms were scored manually at 72 hr using the WHO-TDR metric scoring system as described previously. Dose response curves and EC50 values were obtained by non-linear regression, after log transformation of concentrations and data normalization using GraphPad Prism 7.02. At 72 hr, the medium from each well was also collected, centrifuged at 350 x g for 2 min. Afterwards, the supernatant was removed, and the remaining egg pellet re-suspended in 10% v/v formalin. Eggs that were oval and contained a fully formed lateral spine were subsequently counted.
Fig 3 Adult schistosome motility and egg production are differentially affected by the nine N-acyl homoserine lactones. […] Parasite motility was evaluated for each sex and scored using the WHO-TDR scoring system (0 = Dead parasite, 4 = Normal/Healthy movement). B) Culture media were collected from some adult co-cultures at 72 hrs and eggs present in the media were counted. p values are indicated as follows: * <0.05, ** <0.01, *** <0.001.
As morbidity associated with schistosomiasis is caused by egg-induced granuloma formation in tissues and the subsequent development of fibrotic lesions around these granulomas, compound-mediated modulation of in vitro egg production (as a surrogate for the in vivo pathology initiator) was next assessed (Fig 3B). […] In comparison to the negative control DMSO, in which egg counts ranged from 300–594 (Average—408), all N-Acyl homoserine lactones affected fecundity.

For another series, the system named is HepG2 cells. The experiment in a line: Cell cytotoxicity assay (MTT). In kind it is cell-based, human. The following applies: 24 hr.
[4] abbreviates: Staphylococcus aureus, 24 hr, no visible growth.
Where [5] appears, read: Staphylococcus aureus, value in square brackets, 24 hr.

Structures are written as SMILES. ≈ marks a conversion by molar mass, not a printed value.

Description for HepG2 cells: as §3

As for `O=C(CBr)NC1CCOC1=O` (centres unmarked) [Compound 1, 2-bromo-N-(2-oxotetrahydrofuran-3-yl)acetamide], the MIC against S. aureus ATCC 29213 (setting [4]) is 125 µg/mL; in the series with S. aureus ATCC 29213 (setting [5]) it was 563 µM; in the series on E. coli ATCC 25922 (no visible growth), 125 µg/mL; in the series on E. coli ATCC 25922 (value in square brackets) it was 563 µM. In series [1], this molecule returned a CC50 at 24 h of 43.5 µM. Besides, the “significant effect on juvenile worm motility down to” value in series [2] (72 hr) was found to be 7.5 µM. Also, the “Selectivity index, juvenile worm” value in series [2] is reported as 10.1. Besides, in series [2] (72 hr), the EC50 came out at 4.3 µM. In addition, the “egg laying significantly reduced down to concentration” value in series [3] was 10 µM.

`O=C(CBr)NC1CCSC1=O` (centres unmarked) [Compound 3, 2-bromo-N-(2-oxotetrahydrothiophen-3-yl)acetamide]: the “S. aureus MIC” value in the series on S. aureus ATCC 29213 (24 hr, no visible growth) worked out at 31.3 µg/mL. Moreover, the MIC was 31.2 µg/mL in the series with S. aureus ATCC 29213 (setting [4]), 131 µM in the series on S. aureus ATCC 29213 (setting [5]), 62.5 µg/mL in the series on E. coli ATCC 25922 (no visible growth) and 262 µM against E. coli ATCC 25922 (value in square brackets). Also, the IC50 was 25.9 µg/mL (≈ 109 µM) in the series with S. aureus ATCC 29213 (Staphylococcus aureus, ATCC29213, Table 3, OD600, three independent experiments, 95% confidence interval in parentheses) and 52.7 µg/mL (≈ 221 µM) with E. coli ATCC 25922 (ATCC25922, Table 3, OD600, three independent experiments, 95% confidence interval in parentheses). In series [1], this molecule came in with a CC50 at 24 h of 18.7 µM. In the series with HepG2 cells, the “fold increase in HepG2 cytotoxicity in comparison to compound 1” value is on record as 2.3 fold. For the same molecule, the “complete immobility of juvenile worms observed down to” value in series [2] (72 hr) is 0.94 µM. In series [2], the “Selectivity index, juvenile worm” value is recorded as 37.4. For the same molecule, the EC50 in series [2] (72 hr) stood at 0.5 µM. The “effect on egg production (fecundity)” value in series [3] is “still affected at 1.25 μM, this was not statistically significant”. The “egg laying significantly reduced down to concentration” value in series [3] turned out to be 2.5 µM.
